Patent US5470855A, “Certain heterocyclic thiazole derivatives and their therapeutic use” (Sanofi, priority 1989, dated 1995)

Columns and labels:
guinea pig = assay: PAF-induced bronchospasm in the guinea pig; format: in vivo
mouse = assay: protection against PAF-induced lethal systemic shock in the mouse; format: in vivo; conditions: oral dose of 5 mg/kg, PAF 100 μg/kg
Description: Haemostas, 56(1) 40-44 (1986) and that of protection against lethal systemic shock in the mouse, which is described in J. Pharmacol. Exp. Ther 247(2) 617-23 (1988).

rabbit platelets = assay: inhibition of the aggregation of rabbit platelets induced by the PAF-acether; format: cell-based; conditions: Oryctolagus cuniculus, Platelet, PAF introduced into the medium at 4×10^-10 M, read-out: IC50 (concentration inhibiting 50% of the aggregation induced by the PAF)
Description: Thus in vitro it is possible to study the inhibition of the aggregation of rabbit platelets induced by the PAF-acether according to the method described in Thrombosis Research 41 211-226 (1986). […] Therap.

| SMILES | protection from the lethal systemic shock induced by the PAF (mouse) | also measured |
| --- | --- | --- |
| CC(C)c1cc(C(C)C)c(-c2csc(N(CCN(C)C)Cc3cccnc3)n2)c(C(C)C)c1 [Example 2] |  | duration of complete inhibition of the bronchospasm (guinea pig; IV dose of 1 mg/kg): more than 96 hours; duration of complete inhibition of the bronchospasm (guinea pig; oral dose of 3 mg/kg): more than 96 hours |
| CC(C)c1cc(C(C)C)c(-c2nc(N(CCN(C)C)Cc3cccnc3)sc2Br)c(C(C)C)c1 [Example 90, 2-(N-[2-N',N'-dimethylaminoethyl]N-[3-pyridylmethyl]amino) 5-bromo 4-(2,4,6-triisopropylphenyl) thiazole] | protect the mouse from the lethal systemic shock |  |
| CC(C)c1cc(C(C)C)c(-c2nc(N(CCN(C)C)Cc3cccnc3)sc2Cl)c(C(C)C)c1 [Example 91, 2-(N-[2-N',N'-dimethylaminoethyl]N-[3-pyridylmethyl]amino) 5-chloro 4-(2,4,6-triisopropylphenyl)thiazole] | protect the mouse from the lethal systemic shock |  |
| Cc1nnc2n1-c1sc(CCC(=O)N3CCOCC3)cc1C(c1ccccc1Cl)=NC2 [WEB 2086] |  | IC50 (rabbit platelets): 50 nM |
| Cc1cc(C)c(-c2csc(N(CCN(C)C)Cc3cccnc3)n2)c(C)c1 [Example 14, 2-(N-[2-N',N'-dimethylaminoethyl]N-[3-pyridylmethyl]amino)4-(2,4,6-trimethylphenyl)thiazole] | protect the mouse from the lethal systemic shock |  |
| Cc1oc(N(CCN(C)C)Cc2cccnc2)nc1-c1ccc(Cl)cc1Cl [Example 79, 2(N-[2-N',N'-dimethylaminoethyl]N-[3-pyridylmethyl]amino) 4-(2,4-dichlorophenyl)5-methyl oxazole] | protect the mouse from the lethal systemic shock |  |
| Cc1sc(N(CCN(C)C)Cc2cccnc2)nc1-c1ccc(Cl)cc1Cl [Example 50, 2-(N-[2-N',N'-dimethylaminoethyl]N-[3-pyridylmethyl]amino)4-(2,4-dichlorophenyl) 5-methyl thiazole] | protect the mouse from the lethal systemic shock |  |
